Reference: US20260041723A1, “BACTERIOPHAGE COMPOSITIONS FOR TREATING STAP[…]” (priority 2020, published 2026)

System: S. aureus strains
Assay type: cell-based
Conditions: resistant or intermediate strains, in the presence of AP-SA02
Experimental: Grey boxes indicate lines on graph depicted in FIG. 5B. […] Vancomycin, 16 μg/mL; AP-SA02, 0.1 pg/mL.
FIG. 6A is data showing bacterial growth measured by turbidity (absorbance at 600 nm) in the presence of AP-SA02 and vancomycin in a checkerboard assay. Grey boxes show lines on graph depicted in FIG. 6B. […] Vancomycin, 2 μg/mL.
Standard therapy for subjects with a S. aureus infection includes vancomycin and daptomycin. Since subjects who receive AP-SA02 are likely to be on these therapies, the effect of AP-SA02 on these antibiotics and vice versa was assessed. Using the standard checkerboard assay, the minimum inhibitory concentration of each antimicrobial alone or in combination with each other, was used to calculate whether two antimicrobials are synergistic, antagonistic, or indifferent (Table 3).

CN[C@H](CC(C)C)C(=O)N[C@H]1C(=O)N[C@@H](CC(N)=O)C(=O)N[C@H]2C(=O)N[C@H]3C(=O)N[C@H](C(=O)N[C@H](C(=O)O)c4cc(O)cc(O)c4-c4cc3ccc4O)[C@H](O)c3ccc(c(Cl)c3)Oc3cc2cc(c3O[C@@H]2O[C@H](CO)[C@@H](O)[C@H](O)[C@H]2O[C@H]2C[C@](C)(N)[C@H](O)[C@H](C)O2)Oc2ccc(cc2Cl)[C@H]1O [vancomycin]
breakpoint for vancomycin in the presence of phage: 0.5 to 2 µg/mL
